US9593146B2, “CD44v6-derived peptides for treating metastasizing cancer” (AMCURE GMBH, priority 2012, dated 2017)

Key:
hVEGF = test: Human VEGF in cell culture supernatant of L3.6pl cells; assay type: cell-based; details: 200 ng/ml peptide in the culture medium, 5 days
Description: Determination of human HGF and VEGF levels in cell culture medium of L3.6pl cells were performed using the Quantikine Human HGF Immunoassay and Quantikine Human VEGF Immunoassay from Roche (Mannheim, GER) and R&D Systems (Wiesbaden, Germany). For this purpose 3×10^6 cells were cultured for 5 days in a 15 cm plate in the presence of the respective peptides as indicated. The supernatant (20 ml) was centrifuged (1200 rpm) and the assay was performed according to manufacturer's instructions.

APC/Min/+ mice = test: APC/Min/+ mouse model, tumors in the duodenum; assay type: in vivo
Description: The effect of the v6 14mer was tested in the APC/Min/+ model model using 18 week old mice. The animals received an i.p. injection of 20 μg of v6 14mer (mouse 14mer) or control peptide (rat 14mer) three times per week for 6 weeks. Animals (three per group) were sacrificed at the end of the experiment and the duodenum was analyzed for the total number of tumors (FIG. 25).

Met = test: HGF induced activation of Met and Erk in endothelial cells; assay type: cell-based, human; details: HUVEC, HAOEC and HCMEC; added before induction with HGF
Description: FIG. 12: CD44v6 is required for activation of Met and downstream signaling in several ECs. Different ECs (HUVEC, HAOEC and HCMEC) were serum starved and incubated with several reagents (aCD44v6, v6 14mer and the controls IgG and ctrl pep). The growth factor HGF was added and the cells were lysed. The proteins in the cell lysates were separated by SDS-PAGE and subjected to Western blot analysis. Activation of Met and of its downstream target Erk was detected by means of phospho-specific antibodies that detect phosphorylated forms of Met and Erk. In order to check equal loading of the different samples the membrane was incubated with stripping solution and reprobed with antibodies recognising all Met and Erk proteins. The numbers indicate the fold induction as calculated with the computer programme ImageJ.
When these ECs were treated with HGF, the receptor tyrosine kinase Met was phosphorylated and signaling to Erk—a downstream target of Met—was promoted (FIG. 12). The contribution of CD44v6 to Met signaling in these cells was analysed using different tools.

Met and ERK = test: HGF induced activation of Met and ERK in L3.6pl cells (Western blot); assay type: cell-based, human; details: L3.6pl cells, peptide prior to induction with 10 ng/ml HGF
Description: Serum-starved cells (24 hours) were induced with the growth factor HGF (10 ng/mL) at 37° C. for 5 minutes. Where indicated, the cells were treated with peptides (100 ng/ml) prior to induction at 37° C. for 10 minutes (100 ng/mL CD44v6 peptide or control peptide). Following the induction with HGF, cells were washed with ice-cold phosphate-buffered saline (PBS). To detect activated Met and Erk, cells were lysed in sodium dodecyl sulfate (SDS)-sample buffer containing 100 mM dithiothreitol (DTT), boiled and subjected to western blot analysis using antibodies against phospho-Met and ERK. The loading controls were performed on the same blot after stripping (62.5 mM Tris, pH 6.8, 2% SDS, 0.8% DTT) by probing with the Met respectively ERK antibody. Blots were stained using the enhanced chemiluminescence system (Thermo Fisher Scientific, Schwerte, Germany). Bands in western blot analysis were quantified with the program Image J (National Institutes of Health).

HUVECs and HAOECs = test: Scratch closure assay, EC migration; assay type: cell-based, human; details: 24 hours
Description: FIG. 18: CD44v6 is required for EC migration. HUVECs and HAOECs were grown to confluence and a wound was made into the cell monolayer with a sterile pipette tip. After washing the cells were incubated with the antibody against CD44v6, the CD44v6 peptide (human v614mer) or the control peptide as indicated. The ligands HGF, VEGF-A165 or VEGF-A121 were added and migration of the ECs was analysed after 24 hours. The numbers indicate the percentage of free area in the scratch area quantified by the computer program ImageJ.
In this assay the requirement for CD44v6 for cell migration was tested. In a scratch closure assay migration of either vein or artery ECs was tested. These cells were grown to confluence and a scratch was made into the confluent monolayer using a sterile pipette-tip. The cells lining the scratch border started to migrate into this empty space in order to close the gap. In presence of either HGF, VEGF-A165, or VEGF-A121 the cells migrated faster than in absence of the ligands and the scratch was closed within one day.

ErbB receptors = test: ErbB ligand induced Erk-kinase phosphorylation in HT29 cells; assay type: cell-based, human; details: HT29, 100 ng/ml peptide 5 min, 20 ng/ml ligand
Description: FIG. 15: In contrast to EGF and ER, induction of the ErbB-receptors via TGF-α, BC, Her, HB-EGF or AR is completely independent of CD44v6. Serum-starved HT29 cells were pre-incubated for 5 min with 100 ng/ml of a CD44v6-specific peptide (human v6 14mer) or a control peptide. Afterwards the cells were induced with 20 ng/ml of various ErbB ligands as indicated. The cell lysates were resolved by SDS-PAGE. Western-blotting was used to detect ErbB ligands-induced Erk-kinase phopshorylation.
For this purpose HT29 cells were serum-starved for 24 hours and pre-treated with the v6-specific or a control peptide. They were then induced with the indicated ErbB ligands. Erk-kinase phosphorylation was used as a read-out for receptor activation. All ligands could activate the Erk-kinase. […] These ligands are independent of CD44v6 for their induction of the ErbB receptors. This is especially striking, since EGF and TGF-α address the same receptor pairs (ErbB1/1 or ErbB1/2).

Question: Which results are given for “KEQWFGNRWHEGYR [human 14mer, human CD44v6 14mer peptide]”?
Answer: hVEGF secretion by L3.6pl cells (hVEGF): can be blocked; number of tumors in the duodenum (APC/Min/+ mice; i.p. injection for 6 weeks (FIG. 25)): reduces the number of tumors in the duodenum; decrease according to the size of the tumor (APC/Min/+ mice; mouse 14mer 20 μg i.p. three times per week for 6 weeks): more pronounced in case of small tumors (0-1 mm>1-2 mm>2-5 mm); tumor size in the duodenum (APC/Min/+ mice; mouse 14mer 20 μg i.p. three times per week for 6 weeks, 18 week old mice, preliminary data): strong decrease of the tumor size in the duodenum; tumor number for tumors bigger than 5 mm (APC/Min/+ mice; mouse 14mer 20 μg i.p. three times per week for 6 weeks, versus control peptide): higher; activation of Met and of its downstream target Erk (Met): able to prevent activation of Met and of its downstream target Erk; Phosphorylation of Met and ERK (Met and ERK): inhibited; EC migration induced by HGF, VEGF-A165 or VEGF-A121 (HUVECs and HAOECs): reduced to basal levels; AR, BC, HB-EGF and TGF-α-induced activation of the ErbB receptors (ErbB receptors): could not be inhibited; EGF- and ER-dependent Erk phosphorylation (ErbB receptors): inhibited
